Reference: the supplement of paper PMC10307832

Legend:
Assay in all cases: relative viability (nuclei count vs DMSO), 5 days (fraction); higher = more cells survive
LK-2 = test system: LK-2
Outline: (§1)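 Lung cancer cell lines in 1536-well plates got either a single drug or a fixed anchor-drug dose together with five library-drug doses (not always all listed) in √10 steps, by pin tool, on the day after seeding. Nuclei were counted after 5 days, and relative viability is the treated-to-vehicle ratio of nuclei counts. Values are medians of duplicate plates.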

NCI-H647 = test system: NCI-H647
Outline: as §1

SW 900 = test system: SW 900
Outline: as §1

A-427 = test system: A-427
Outline: as §1

NCI-H2085 = test system: NCI-H2085
Outline: as §1

NCI-H322M = test system: NCI-H322M
Outline: as §1

NCI-H3122 = test system: NCI-H3122
Outline: as §1

PC-14 = test system: PC-14
Outline: as §1

NCI-H1993 = test system: NCI-H1993
Outline: as §1

NCI-H1734 = test system: NCI-H1734
Outline: as §1

H3255 = test system: H3255
Outline: as §1

NCI-H1651 = test system: NCI-H1651
Outline: as §1

EKVX = test system: EKVX
Outline: as §1

NCI-H460 = test system: NCI-H460
Outline: as §1

RERF-LC-KJ = test system: RERF-LC-KJ
Outline: as §1

NCI-H1437 = test system: NCI-H1437
Outline: as §1

NCI-H2087 = test system: NCI-H2087
Outline: as §1

NCI-H2405 = test system: NCI-H2405
Outline: as §1

NCI-H2347 = test system: NCI-H2347
Outline: as §1

NCI-H358 = test system: NCI-H358
Outline: as §1

NCI-H23 = test system: NCI-H23
Outline: as §1

LXF-289 = test system: LXF-289
Outline: as §1

## Nc1cccc2c1CN(C1CCC(=O)NC1=O)C2=O (centres undefined) [Lenalidomide] + NC(=O)Nc1cc(-c2cccc(F)c2)sc1C(=O)N[C@H]1CCCNC1 [AZD7762] (partner 0.2 µM)
LK-2; first compound 0.253 µM
  relative viability: 0.511
LK-2; first compound 0.8 µM
  relative viability: 0.366
LK-2; first compound 2.53 µM
  relative viability: 0.33
LK-2; first compound 8 µM
  relative viability: 0.206
NCI-H647; first compound 0.253 µM
  relative viability: 0.485
NCI-H647; first compound 0.8 µM
  relative viability: 0.401
NCI-H647; first compound 2.53 µM
  relative viability: 0.499
NCI-H647; first compound 8 µM
  relative viability: 0.498
SW 900; first compound 2.53 µM
  relative viability: 0.578
SW 900; first compound 8 µM
  relative viability: 0.456
A-427; first compound 0.253 µM
  relative viability: 0.793
A-427; first compound 0.8 µM
  relative viability: 0.878
A-427; first compound 2.53 µM
  relative viability: 0.889
A-427; first compound 8 µM
  relative viability: 0.887
NCI-H2085; first compound 0.253 µM
  relative viability: 0.991
NCI-H2085; first compound 0.8 µM
  relative viability: 1.02
NCI-H2085; first compound 2.53 µM
  relative viability: 0.982
NCI-H2085; first compound 8 µM
  relative viability: 0.919
NCI-H322M; first compound 0.253 µM
  relative viability: 0.543
NCI-H322M; first compound 0.8 µM
  relative viability: 0.55
NCI-H322M; first compound 2.53 µM
  relative viability: 0.596
NCI-H322M; first compound 8 µM
  relative viability: 0.442
NCI-H3122; first compound 0.253 µM
  relative viability: 0.938
NCI-H3122; first compound 0.8 µM
  relative viability: 1.03
NCI-H3122; first compound 2.53 µM
  relative viability: 1.06
NCI-H3122; first compound 8 µM
  relative viability: 0.966
PC-14; first compound 0.253 µM
  relative viability: 0.384
PC-14; first compound 0.8 µM
  relative viability: 0.297
PC-14; first compound 2.53 µM
  relative viability: 0.386
PC-14; first compound 8 µM
  relative viability: 0.427
NCI-H1993; first compound 0.253 µM
  relative viability: 0.587
NCI-H1993; first compound 0.8 µM
  relative viability: 0.646
NCI-H1993; first compound 2.53 µM
  relative viability: 0.702
NCI-H1993; first compound 8 µM
  relative viability: 0.539
NCI-H1734; first compound 0.253 µM
  relative viability: 0.586
NCI-H1734; first compound 0.8 µM
  relative viability: 0.597
NCI-H1734; first compound 2.53 µM
  relative viability: 0.618
NCI-H1734; first compound 8 µM
  relative viability: 0.494
H3255; first compound 0.253 µM
  relative viability: 0.936
H3255; first compound 0.8 µM
  relative viability: 0.747
H3255; first compound 2.53 µM
  relative viability: 0.93
H3255; first compound 8 µM
  relative viability: 0.823
NCI-H1651; first compound 0.253 µM
  relative viability: 0.506
NCI-H1651; first compound 0.8 µM
  relative viability: 0.436
NCI-H1651; first compound 2.53 µM
  relative viability: 0.568
NCI-H1651; first compound 8 µM
  relative viability: 0.44
EKVX; first compound 0.253 µM
  relative viability: 0.735
EKVX; first compound 0.8 µM
  relative viability: 0.941
EKVX; first compound 2.53 µM
  relative viability: 0.805
EKVX; first compound 8 µM
  relative viability: 0.7
NCI-H460; first compound 0.253 µM
  relative viability: 0.578
NCI-H460; first compound 0.8 µM
  relative viability: 0.567
NCI-H460; first compound 2.53 µM
  relative viability: 0.596
NCI-H460; first compound 8 µM
  relative viability: 0.754
RERF-LC-KJ; first compound 0.253 µM
  relative viability: 1.01
RERF-LC-KJ; first compound 0.8 µM
  relative viability: 0.319
RERF-LC-KJ; first compound 2.53 µM
  relative viability: 1.18
RERF-LC-KJ; first compound 8 µM
  relative viability: 0.82
NCI-H1437; first compound 0.253 µM
  relative viability: 1.16
NCI-H1437; first compound 0.8 µM
  relative viability: 1.23
NCI-H1437; first compound 2.53 µM
  relative viability: 1.17
NCI-H1437; first compound 8 µM
  relative viability: 1.19
NCI-H2087; first compound 0.253 µM
  relative viability: 1.29
NCI-H2087; first compound 2.53 µM
  relative viability: 1.29
NCI-H2087; first compound 8 µM
  relative viability: 1.23
NCI-H2405; first compound 0.253 µM
  relative viability: 0.681
NCI-H2405; first compound 0.8 µM
  relative viability: 0.498
NCI-H2405; first compound 2.53 µM
  relative viability: 0.815
NCI-H2405; first compound 8 µM
  relative viability: 0.821
NCI-H2347; first compound 0.253 µM
  relative viability: 0.787
NCI-H2347; first compound 0.8 µM
  relative viability: 0.689
NCI-H2347; first compound 2.53 µM
  relative viability: 0.811
NCI-H2347; first compound 8 µM
  relative viability: 0.703
NCI-H358; first compound 0.253 µM
  relative viability: 0.521
NCI-H358; first compound 0.8 µM
  relative viability: 0.713
NCI-H358; first compound 2.53 µM
  relative viability: 0.494
NCI-H358; first compound 8 µM
  relative viability: 0.621
NCI-H23; first compound 0.253 µM
  relative viability: 0.253
NCI-H23; first compound 2.53 µM
  relative viability: 0.22
NCI-H23; first compound 8 µM
  relative viability: 0.229
LXF-289; first compound 0.253 µM
  relative viability: 1.09
LXF-289; first compound 0.8 µM
  relative viability: 1.1
LXF-289; first compound 2.53 µM
  relative viability: 1.23
LXF-289; first compound 8 µM
  relative viability: 1.26
